Assay [1] has as its target BACE1 (Homo sapiens, UniProt P56817). As to the kind of experiment: In vitro enzymatic BACE FRET assay. The assay is classed as biochemical. The following applies: beta secretase enzyme 0.2 nM, FRET substrate 50 nM, pH 4.2; read-out: BACE1 FRET assay (IC50 class). How it is done: In Vitro Enzymatic BACE FRET (Fluorescence Resonance Energy Transfer) Assay (Enzyme Assay Data in Table 1)
The assay buffer used in this screen is 0.05 M acetate, pH 4.2, 10% DMSO final, 100 uM genapol (which is a nonionic detergent, below its Critical Micelle Concentration). The beta secretase enzyme (0.2 nM) is pre-incubated for one hour with inhibitors, typically in about 1 uL of DMSO according to a serial dilution, are added thereto. The assay is effectively started by the addition of FRET substrate (50 nM) and the combination is incubated for one hour. The FRET assay is terminated with by addition of Tris buffer, which raises the pH to neutrality, and the fluorescence is determined. The FRET substrate is a peptide with commercially available fluorophore and quencher, on opposite sides of the BACE cleavage site. Proteolytic cleavage of the FRET substrate releases quenching of fluorescence (excitation […] and […]).
Of the compounds tested, the in-vitro BACE FRET enzyme data for each of Examples 1-220, where available at the time of filing this application, is provided in Table 1.

Assay [2] concerns Aβ40 in conditioned medium of cells stably expressing Amyloid Precursor Protein (APP). As to the kind of experiment: In vitro BACE cell-based assay (HEK cell assay), Aβ40 sandwich ELISA. The following applies: Homo sapiens, HEK293, 24 h, inhibition of Aβ40, 24 h incubation, read-out: HEK cell assay (IC50 class). As to the method: In Vitro BACE Cell-Based Assay:
The cell-based assay measures inhibition or reduction of Aβ40 in conditioned medium of test compound treated cells expressing amyloid precursor protein.
Cells stably expressing Amyloid Precursor Protein (APP) were plated at a density of 40K cells/well in 96 well plates (Costar). The cells were cultivated for 24 hours at 37° C. and 5% CO2 in DMEM supplemented with 10% FBS. The test compounds were then added to cells in 10-point dose response concentrations with the starting concentration being either 100 μM or 10 μM. The compounds were diluted from stock solutions in DMSO and the final DMSO concentration of the test compounds on cells was 0.1%. After 24 h of incubation with the test compounds the supernatant conditioned media was collected and the Aβ 40 levels were determined using a sandwich ELISA. The IC50 of the compound was calculated from the percent of control or percent inhibition of Aβ 40 as a function of the concentration of the test compound.
The sandwich ELISA to detect Aβ 40 was performed in 96 well microtiter plates, which were pre-treated with goat anti-rabbit IgG (Pierce). The capture and detecting antibody pair that were used to detect Aβ 40 from cell supernatants were affinity purified pAb40 (Biosource) and biotinylated 6E10 (Signet Labs Inc.), respectively. The optimal concentration for the pAb40 antibody was 3 μg/ml in Superblock/TBS (Pierce) that was supplemented with 0.05% Tween 20 (Sigma). Optimal concentration for the detection antibody 6E10-biotinylated was 0.5 μg/ml in Superblock/TBS (Pierce) that had been supplemented with 2% normal goat serum and 2% normal mouse serum.
Cellular supernatants were incubated with the capture antibody for 3 h at 4° C., followed by 3 wash steps in TBS-tween (0.05%). The detecting antibody incubation was for 2 h at 4° C., again followed by the wash steps as described previously. The final readout of the ELISA is Time-Resolved Fluorescence (counts per minute) using Delfia reagents Streptavidin-Europium and Enhancement solutions (Perkin Elmer) and the Victor 2 multilabel counter (Perkin Elmer).
For orientation: An ELISA detects its analyte on a solid surface through an enzyme-linked reagent.

A value given as a limit tells only on which side of the number the result lay.

What is called IC50 is the concentration that gives 50% inhibition.

BACE1, sequence (P56817 46-501, species assumed): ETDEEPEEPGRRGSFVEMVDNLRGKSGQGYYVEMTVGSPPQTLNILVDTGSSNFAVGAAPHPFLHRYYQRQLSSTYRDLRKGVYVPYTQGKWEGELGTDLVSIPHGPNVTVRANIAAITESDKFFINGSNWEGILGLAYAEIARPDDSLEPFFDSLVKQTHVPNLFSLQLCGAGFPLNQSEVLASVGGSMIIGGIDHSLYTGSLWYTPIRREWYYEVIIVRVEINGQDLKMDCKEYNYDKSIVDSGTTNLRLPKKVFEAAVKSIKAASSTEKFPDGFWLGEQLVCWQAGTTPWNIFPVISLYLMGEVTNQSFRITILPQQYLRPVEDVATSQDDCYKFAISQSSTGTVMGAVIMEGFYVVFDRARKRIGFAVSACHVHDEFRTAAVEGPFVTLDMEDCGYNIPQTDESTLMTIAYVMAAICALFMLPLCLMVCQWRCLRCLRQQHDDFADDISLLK

Turning to `CCN(C)C(=O)c1cccc(C)c1-c1ccc2nc(N)c(N3CCOCC3)cc2c1` [Example 121, 2-(2-amino-3-morpholinoquinolin-6-yl)-N-ethyl-N,3-dimethylbenzamide], the IC50 in assay [1] was 100 to 500 nM; in assay [2], 1010 to 5000 nM.
`CCN(CC)C(=O)c1cccc(C)c1-c1ccc2nc(N)c(N3CCOCC3)cc2c1` [Example 102, 2-(2-amino-3-morpholinoquinolin-6-yl)-N,N-diethyl-3-methylbenzamide]: the values for the IC50 in assay [1] and in assay [2] were 100 to 500 nM and 1010 to 5000 nM, respectively.
In the case of `Cc1ccc(N(C)C(=O)c2cccc(C)c2-c2ccc3nc(N)c(N4CCOCC4)cc3c2)cc1` [Example 131, 2-(2-amino-3-morpholinoquinolin-6-yl)-N,3-dimethyl-N-p-tolylbenzamide], the IC50 in assay [1] was less than 100 nM; in assay [2], 1010 to 5000 nM.
With `Cc1cccc(OCCOC(C)C)c1-c1ccc2nc(N)c(N3CCOCC3)cc2c1` [Example 170, 6-(2-(2-isopropoxyethoxy)-6-methylphenyl)-3-morpholinoquinolin-2-amine], the concentration for half-maximal inhibition (IC50) in assay [1] is less than 100 nM; in assay [2] it was 1010 to 5000 nM.
`CCN(C(=O)c1cccc(C)c1-c1ccc2nc(N)c(N3CCOCC3)cc2c1)C1CCCCC1` [Example 113, 2-(2-amino-3-morpholinoquinolin-6-yl)-N-cyclohexyl-N-ethyl-3-methylbenzamide]: the figures for the 50% inhibitory concentration (IC50) in assay [1] and in assay [2] were 100 to 500 nM and 1010 to 5000 nM, respectively.
In the case of `CCCCN(CC)C(=O)c1cccc(C)c1-c1ccc2nc(N)c(N3CCOCC3)cc2c1` [Example 118, 2-(2-amino-3-morpholinoquinolin-6-yl)-N-butyl-N-ethyl-3-methylbenzamide], the IC50 in assay [1] was in the range of 501 to 1000 nM; in assay [2] it was 1010 to 5000 nM.
In the case of `Cc1cccc(C(=O)N2CCC(C(F)(F)F)C2)c1-c1ccc2nc(N)c(N3CCOCC3)cc2c1` (stereo not shown) [Example 96, (2-(2-amino-3-morpholinoquinolin-6-yl)-3-methylphenyl)(3-(trifluoromethyl)pyrrolidin-1-yl)methanone], the half-inhibitory concentration (IC50) in assay [1] was less than 100 nM; in assay [2] it was 1010 to 5000 nM.
With `Nc1nc2ccc(-c3c(C#Cc4ccccc4)cccc3C(=O)N3CCCC3)cc2cc1N1CCOCC1` [Example 161, (2-(2-amino-3-morpholinoquinolin-6-yl)-3-(phenylethynyl)phenyl)(pyrrolidin-1-yl)methanone], the IC50 was less than 100 nM in assay [1] and 501 to 1000 nM in assay [2].
Turning to `CC(C)(C)CCc1cccc(C(=O)N2CCCC2)c1-c1ccc2nc(N)c(N3CCOCC3)cc2c1` [Example 45, (2-(2-amino-3-morpholinoquinolin-6-yl)-3-(3,3-dimethylbutyl)phenyl)(pyrrolidin-1-yl)methanone], the IC50 in assay [1] and in assay [2] was less than 100 nM each time.
Regarding `COCCC1CCN(C(=O)c2cccc(C)c2-c2ccc3nc(N)c(N4CCOCC4)cc3c2)CC1` [Example 75, (2-(2-amino-3-morpholinoquinolin-6-yl)-3-methylphenyl)(4-(2-methoxyethyl)piperidin-1-yl)methanone], the IC50 lay within 100 to 500 nM in assay [1] and 1010 to 5000 nM in assay [2].
As for `Cc1cccc(C(=O)N2CCSC2)c1-c1ccc2nc(N)c(N3CCOCC3)cc2c1` [Example 89, (2-(2-amino-3-morpholinoquinolin-6-yl)-3-methylphenyl)(thiazolidin-3-yl)methanone], the IC50 in assay [1] is less than 100 nM; in assay [2], 501 to 1000 nM.
Consider `Cc1cccc(C(=O)c2cccc(C)c2-c2ccc3nc(N)c(N4CCOCC4)cc3c2)c1` [Example 173, (2-(2-amino-3-morpholinoquinolin-6-yl)-3-methylphenyl)(m-tolyl)methanone], for which the IC50 in assay [1] was less than 100 nM; in assay [2], 1010 to 5000 nM.
`Cc1cccc(C(=O)N(C)C(C)(C)C)c1-c1ccc2nc(N)c(N3CCOCC3)cc2c1` [Example 123, 2-(2-amino-3-morpholinoquinolin-6-yl)-N-tert-butyl-N,3-dimethylbenzamide]: the IC50 in assay [1] is less than 100 nM; in assay [2], 501 to 1000 nM.
For `Cc1cccc(C(c2ccccc2)N2CCCC2)c1-c1ccc2nc(N)c(N3CCOCC3)cc2c1` (stereo not shown) [Example 9, 6-(2-methyl-6-(phenyl(pyrrolidin-1-yl)methyl)phenyl)-3-morpholinoquinolin-2-amine], the IC50 in assay [1] was in the range of 501 to 1000 nM; in assay [2] it was 100 to 500 nM.
Regarding `Cc1cccc(C(=O)N2CCCC2)c1-c1ccc2nc(N)c(C3=CCCC3)cc2c1` [Example 57, (2-(2-amino-3-cyclopentenylquinolin-6-yl)-3-methylphenyl)(pyrrolidin-1-yl)methanone], the results for the concentration for half-maximal inhibition (IC50) in assay [1] and in assay [2] were 100 to 500 nM and 1010 to 5000 nM, respectively.
Take `CC(C)(C)C#Cc1cccc(C(=O)N2CCCC2)c1-c1ccc2nc(N)c(N3CCOCC3)cc2c1` [Example 44, (2-(2-amino-3-morpholinoquinolin-6-yl)-3-(3,3-dimethylbut-1-ynyl)phenyl)(pyrrolidin-1-yl)methanone]: the concentration for half-maximal inhibition (IC50) was less than 100 nM in assay [1] and 100 to 500 nM in assay [2].
As to `Cc1cccc(C(=O)N2CCSCC2)c1-c1ccc2nc(N)c(N3CCOCC3)cc2c1` [Example 91, (2-(2-amino-3-morpholinoquinolin-6-yl)-3-methylphenyl)(thiomorpholino)methanone], the half-maximal inhibitory concentration (IC50) in assay [1] is less than 100 nM; in assay [2] it was 1010 to 5000 nM.
Take `Nc1nc2ccc(-c3ccccc3F)cc2cc1N1CCOCC1` [Example 220, 6-(2-fluorophenyl)-3-morpholinoquinolin-2-amine]: the figures for the IC50 in assay [1] and in assay [2] were 1010 to 5000 nM and more than 5000 nM, respectively.
On to `Cc1cccc(C(=O)N2CCC2)c1-c1ccc2nc(N)c(N3CCOCC3)cc2c1` [Example 103, (2-(2-amino-3-morpholinoquinolin-6-yl)-3-methylphenyl)(azetidin-1-yl)methanone], for which the IC50 is 100 to 500 nM in assay [1] and 501 to 1000 nM in assay [2].
For the molecule `CCC1CCCCN1C(=O)c1cccc(C)c1-c1ccc2nc(N)c(N3CCOCC3)cc2c1` (stereo not shown) [Example 81, (2-(2-amino-3-morpholinoquinolin-6-yl)-3-methylphenyl)(2-ethylpiperidin-1-yl)methanone], the IC50 in assay [1] is less than 100 nM; in assay [2], 1010 to 5000 nM.
For `Cc1cccc(C(O)c2ccccc2)c1-c1ccc2nc(N)c(N3CCOCC3)cc2c1` (stereo not shown) [Example 199, (2-(2-amino-3-morpholinoquinolin-6-yl)-3-methylphenyl)(phenyl)methanol], in that order: less than 100 nM and 100 to 500 nM.
Take `COc1ccccc1C(=N)c1cccc(C)c1-c1ccc2nc(N)c(N3C[C@@H]4C[C@H]3CO4)cc2c1` [Example 188, 3-((1S,4S)-2-oxa-5-azabicyclo[2.2.1]heptan-5-yl)-6-(2-(imino(2-methoxyphenyl)methyl)-6-methylphenyl)quinolin-2-amine]: the concentration for half-maximal inhibition (IC50) in assay [1] was in the range of 100 to 500 nM; in assay [2], 501 to 1000 nM.
For `Cc1cccc(C(=O)N2[C@H](C)CCC[C@@H]2C)c1-c1ccc2nc(N)c(N3CCOCC3)cc2c1` [Example 84, (2-(2-amino-3-morpholinoquinolin-6-yl)-3-methylphenyl)((2S,6R)-2,6-dimethylpiperidin-1-yl)methanone], in that order: less than 100 nM and 501 to 1000 nM.
For `CCCN(C(=O)c1cccc(C)c1-c1ccc2nc(N)c(N3CCOCC3)cc2c1)C(C)C` [Example 106, 2-(2-amino-3-morpholinoquinolin-6-yl)-N-isopropyl-3-methyl-N-propylbenzamide], in that order: 501 to 1000 nM and more than 5000 nM.
`COCCN(C)C(=O)c1cccc(C)c1-c1ccc2nc(N)c(N3CCOCC3)cc2c1` [Example 71, 2-(2-amino-3-morpholinoquinolin-6-yl)-N-(2-methoxyethyl)-N,3-dimethylbenzamide]: the IC50 in assay [1] fell in the range of 100 to 500 nM; in assay [2], 1010 to 5000 nM.
Take `Cc1cccc(C(=O)c2ccccn2)c1-c1ccc2nc(N)c(C3CCOCC3)cc2c1` [Example 38, (2-(2-amino-3-(tetrahydro-2H-pyran-4-yl)quinolin-6-yl)-3-methylphenyl)(pyridin-2-yl)methanone]: the figures for the half-inhibitory concentration (IC50) in assay [1] and in assay [2] were less than 100 nM and 100 to 500 nM, respectively.
